Measured values published in patent US10087188B2, “Benzamide imidazopyrazine Btk inhibitors” (MERCK SHARP & DOHME CORP., priority 2014, dated 2018).
Like-named read-outs stand apart in the source and are kept apart here.

Columns and labels:
[1] = molecular target: BTK enzyme (recombinant full-length BTK, hBTK) (Homo sapiens (Human), UniProt Q06187); assay: Btk enzyme activity assay, LANCE TR-FRET; assay type: biochemical; details: 50 pM hBTK, 2 μM biotin-A5-peptide, 25 μM ATP; 60 minute compound & enzyme incubation; read-out: BTK binding IC50
Sequence of BTK enzyme (recombinant full-length BTK, hBTK) (Q06187 whole entry): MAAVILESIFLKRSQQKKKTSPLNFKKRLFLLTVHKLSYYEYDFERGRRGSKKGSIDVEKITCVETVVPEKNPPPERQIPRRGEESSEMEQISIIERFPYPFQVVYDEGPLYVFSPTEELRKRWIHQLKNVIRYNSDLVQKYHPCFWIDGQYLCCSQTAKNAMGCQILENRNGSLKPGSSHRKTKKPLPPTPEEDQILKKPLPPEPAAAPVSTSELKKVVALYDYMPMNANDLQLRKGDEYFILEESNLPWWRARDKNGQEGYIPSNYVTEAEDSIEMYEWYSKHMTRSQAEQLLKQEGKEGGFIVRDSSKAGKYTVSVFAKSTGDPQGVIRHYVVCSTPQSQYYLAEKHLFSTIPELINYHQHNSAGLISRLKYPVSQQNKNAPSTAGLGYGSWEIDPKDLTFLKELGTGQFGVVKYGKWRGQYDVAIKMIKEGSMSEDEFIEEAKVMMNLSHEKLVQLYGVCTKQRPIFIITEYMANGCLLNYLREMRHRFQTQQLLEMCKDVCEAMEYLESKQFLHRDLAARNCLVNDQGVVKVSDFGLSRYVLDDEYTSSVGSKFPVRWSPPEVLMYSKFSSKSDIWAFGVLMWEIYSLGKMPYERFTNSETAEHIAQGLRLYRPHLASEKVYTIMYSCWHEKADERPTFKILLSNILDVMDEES
Protocol: Btk Enzyme Activity Assay Methods
BTK enzymatic activity was determined with the LANCE (Lanthanide Chelate Excite) TR-FRET (Time-resolved fluorescence resonance energy transfer) assay. […] After 60 minutes incubation with detection reagents, reaction plates were read on a PerkinElmer EnVision plate reader using standard TR-FRET protocol.

HeLa cells = assay: [3H] Adenosine uptake assay; assay type: cell-based; details: accumulation of tritiated adenosine into HeLa cells, compound concentration range 10 μM to 0.032 nM, read-out: ADU inhibition IC50 (adenosine uptake inhibition potency)
Summary of the method: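 Accumulation of tritiated adenosine in adherent HeLa cells, detected by scintillant-plate coincidence counting, gives IC50 via 4-parameter robust fit. Compound (constant 0.25% DMSO) applied 30 min ahead, then 60 min radiolabel exposure (added from 500 nM solution), ambient conditions, HBSS with 5% FBS.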

SMILES	IC50 [1] [nM]	IC50 (HeLa cells; Homo sapiens, HeLa) [nM]	IC50 (HeLa cells) [nM]
Nc1nccn2c(N3CC[C@@H](C(=O)O)C3)nc(-c3ccc(C(=O)Nc4cc(C(F)(F)F)ccn4)cc3)c12 [Example 36, (3R)-1-[8-amino-1-(4-{[4-(trifluoromethyl)pyridin-2-yl]carbamoyl}phenyl)imidazo[1,5-a]pyrazin-3-yl]pyrrolidine-3-carboxylic acid]	2.6	4700	
Nc1nccn2c([C@H]3CC[C@H]4[C@H](C(=O)O)[C@H]43)nc(-c3ccc(C(=O)Nc4cc(C(F)(F)F)ccn4)cc3)c12 [Example 57, (1R,2S,5R,6S)-2-[8-amino-1-(4-{[4-(trifluoromethyl)pyridin-2-yl]carbamoyl}phenyl)imidazo[1,5-a]pyrazin-3-yl]bicyclo[3.1.0] hexane-6-carboxylic acid]	3.2	10000	
Nc1nccn2c(C34CCC(C(=O)O)(CC3)CC4)nc(-c3ccc(C(=O)Nc4cc(C(F)(F)F)ccn4)cc3O)c12 [Example 161, 4-[8-amino-1-(2-hydroxy-4-{[4-(trifluoromethyl)pyridin-2-yl]carbamoyl}phenyl)imidazo[1,5-a]pyrazin-3-yl]bicyclo[2.2.2] octane-1-carboxylic acid]	0.41	531	
Nc1nccn2c(-c3ccc(C(=O)O)cc3)nc(-c3ccc(C(=O)Nc4cc(C(F)(F)F)ccn4)cc3)c12 [Example 26, 4-[8-amino-1-(4-{[4-(trifluoromethyl)pyridin-2-yl]carbamoyl}phenyl)imidazo[1,5-a]pyrazin-3-yl]benzoic acid]	0.97	5580	
C[C@]1(C(=O)O)CCCN(c2nc(-c3ccc(C(=O)Nc4cc(C(F)(F)F)ccn4)cc3)c3c(N)nccn23)C1 [Example 42, (3S)-1-[8-amino-1-(4-{[4-(trifluoromethyl)pyridin-2-yl]carbamoyl}phenyl)imidazo[1,5-a]pyrazin-3-yl]-3-methylpiperidine-3-carboxylic acid]	22.9	2770	
CCOc1cc(C(=O)Nc2cc(C(F)(F)F)ccn2)cc(F)c1-c1nc([C@@H]2CC[C@](C)(C(=O)O)C2(C)C)n2ccnc(N)c12 [Example 113, (1S,3R)-3-[8-amino-1-(2-ethoxy-6-fluoro-4-{[4-(trifluoromethyl)pyridin-2-yl]carbamoyl}phenyl)imidazo[1,5-a]pyrazin-3-yl]-1,2,2-trimethylcyclopentane carboxylic acid]	0.48	5940	
C[C@@]1(C(=O)O)CC[C@@](C)(c2nc(-c3ccc(C(=O)Nc4cc(C(F)(F)F)ccn4)cc3F)c3c(N)nccn23)C1 [Example 136, (1R,3R)-3-[8-amino-1-(2-fluoro-4-{[4-(trifluoromethyl)pyridin-2-yl]carbamoyl}phenyl)imidazo[1,5-a]pyrazin-3-yl]-1,3-dimethylcyclopentane carboxylic acid]	0.17	3420	
Nc1nccn2c(-c3cccc(C(=O)O)c3)nc(-c3ccc(C(=O)Nc4cc(C(F)(F)F)ccn4)cc3)c12 [Example 23, 3-(8-amino-1-(4-((4-(trifluoromethyl)pyridin-2-yl)carbamoyl)phenyl)imidazo[1,5-a]pyrazin-3-yl)benzoic acid]	0.56	10000	
CC(C)(C(=O)O)C1CCC(c2nc(-c3ccc(C(=O)Nc4cc(C(F)(F)F)ccn4)cc3)c3c(N)nccn23)C1 (centres unmarked) [Example 96, 2-{3-[8-amino-1-(4-{[4-(trifluoromethyl)pyridin-2-yl]carbamoyl}phenyl)imidazo[1,5-a]pyrazin-3-yl]cyclopentyl}-2-methylpropanoic acid]	4		10000
C[C@]1(C(=O)O)CC[C@@](C)(c2nc(-c3ccc(C(=O)Nc4cc(C(F)(F)F)ccn4)cc3)c3c(N)nccn23)C1 [Example 80, (1S,3R)-3-[8-amino-1-(4-{[4-(trifluoromethyl)pyridin-2-yl]carbamoyl}phenyl)imidazo[1,5-a]pyrazin-3-yl]-1,3-dimethylcyclopentane carboxylic acid]	2.4	9480	
CCOc1cc(C(=O)Nc2cc(C(F)(F)F)ccn2)ccc1-c1nc([C@@H]2CC[C@](C)(C(=O)O)C2(C)C)n2ccnc(N)c12 [Example 84, (1S,3R)-3-[8-amino-1-(2-ethoxy-4-{[4-(trifluoromethyl)pyridin-2-yl]carbamoyl}phenyl)imidazo[1,5-a]pyrazin-3-yl]-1,2,2-trimethylcyclopentane carboxylic acid]	0.45	7350	
CC1(C)[C@H](c2nc(-c3ccc(C(=O)Nc4cc(C(F)(F)F)ccn4)cc3)c3c(N)nccn23)CC[C@]1(C)C(=O)O [Example 69, (1S,3R)-3-[8-amino-1-(4-{[4-(trifluoromethyl)pyridin-2-yl]carbamoyl}phenyl)imidazo[1,5-a]pyrazin-3-yl]-1,2,2-trimethylcyclopentane carboxylic acid]	0.37	1080	
CCOc1cc(C(=O)Nc2cc(C(F)(F)F)ccn2)ccc1-c1nc([C@@H]2CC[C@@H](C(=O)O)O2)n2ccnc(N)c12 [Example 117, (2S,5S)-5-[8-amino-1-(2-ethoxy-4-{[4-(trifluoromethyl)pyridin-2-yl]carbamoyl}phenyl)imidazo[1,5-a]pyrazin-3-yl]tetrahydrofuran-2-carboxylic acid]	8.7		3050
CCOc1cc(C(=O)Nc2cc(C3CC3)ccn2)cc(F)c1-c1nc(C2(C)CCC(C)(C(=O)O)CC2)n2ccnc(N)c12 (centres unmarked) [Example 131, 4-(8-amino-1-{4-[(4-cyclopropylpyridin-2-yl)carbamoyl]-2-ethoxy-6-fluorophenyl}imidazo [1,5-a]pyrazin-3-yl)-1,4-dimethylcyclohexane-carboxylic acid]	0.75	10000	
CCOc1cc(C(=O)Nc2cc(C(F)(F)F)ccn2)ccc1-c1nc([C@H]2C[C@H]3CC[C@@H](C2)[C@H]3C(=O)O)n2ccnc(N)c12 [Example 104, (3-endo,8-syn)-3-[8-amino-1-(2-ethoxy-4-{[4-(trifluoromethyl)pyridin-2-yl]carbamoyl}phenyl)imidazo[1,5-a]pyrazin-3-yl]bicyclo[3.2.1] octane-8-carboxylic acid]	5.2	10000	

The next lines start with the values.

IC50 [1] [nM]	IC50 (HeLa cells; Homo sapiens, HeLa) [nM]	IC50 (HeLa cells) [nM]	SMILES
0.76	3160		C[C@H]1CO[C@@H](c2nc(-c3ccc(C(=O)Nc4cc(C5CC5)ccn4)cc3F)c3c(N)ncc(Cl)n23)CN1[C@H]1CC[C@](C)(C(=O)O)CC1 [Example 209, trans-4-[(2R,5S)-2-(8-amino-5-chloro-1-{4-[(4-cyclopropylpyridin-2-yl)carbamoyl]-2-fluorophenyl}imidazo[1,5-a]pyrazin-3-yl)-5-methylmorpholin-4-yl]-1-methylcyclohexanecarboxylic acid]
0.29	6880		COc1cc(C(=O)Nc2cc(C(F)(F)F)ccn2)ccc1-c1nc(C23CCC(C(=O)O)(CC2)CC3)n2ccnc(N)c12 [Example 171, 4-[8-amino-1-(2-methoxy-4-{[4-(trifluoromethyl)pyridin-2-yl]carbamoyl}phenyl)imidazo[1,5-a]pyrazin-3-yl]bicyclo[2.2.2] octane-1-carboxylic acid]
737	10000		C[C@H]1CO[C@@H](c2nc(-c3ccc(C(=O)Nc4cc(C(F)F)ccn4)cc3F)c3c(N)ncc(Cl)n23)CN1[C@H]1CC[C@](C)(C(=O)O)CC1 [Example 207, trans-4-{(2R,5S)-2-[8-amino-5-chloro-1-(4-{[4-(difluoromethyl)pyridin-2-yl]carbamoyl}-2-fluorophenyl)imidazo[1,5-a]pyrazin-3-yl]-5-methylmorpholin-4-yl}-1-methylcyclohexanecarboxylic acid]
1.9	6760		CC1(C(=O)O)CCC(c2nc(-c3ccc(C(=O)Nc4cc(C(F)(F)F)ccn4)cc3F)c3c(N)ncc(Cl)n23)CC1 (centres unmarked) [Example 163, 4-[8-amino-5-chloro-1-(2-fluoro-4-{[4-(trifluoromethyl)pyridin-2-yl]carbamoyl}phenyl)imidazo[1,5-a]pyrazin-3-yl]-1-methylcyclohexane-carboxylic acid]
61.2	5410		COc1cc(C(=O)Nc2cc(C(F)(F)F)ccn2)ccc1-c1nc([C@H]2CN(C(C)(C)C(=O)O)CCO2)n2ccnc(N)c12 [Example 184, 2-{(2R)-2-[8-amino-1-(2-methoxy-4-{[4-(trifluoromethyl)pyridin-2-yl]carbamoyl}phenyl)imidazo [1,5-a]pyrazin-3-yl]morpholin-4-yl}-2-methylpropanoic acid]
1.5	6270		C[C@H]1CO[C@@H](c2nc(-c3ccc(C(=O)Nc4cc(C5CC5)ccn4)cc3F)c3c(N)nccn23)CN1[C@H]1CC[C@](C)(C(=O)O)CC1 [Example 210, trans-4-[(2R,5S)-2-(8-amino-1-{4-[(4-cyclopropylpyridin-2-yl)carbamoyl]-2-fluorophenyl}imidazo[1,5-a]pyrazin-3-yl)-5-methylmorpholin-4-yl]-1-methylcyclohexanecarboxylic acid]
1.8	2340		COc1cc(C(=O)Nc2cc(C(F)(F)F)ccn2)ccc1-c1nc([C@H]2CN(C3CCC(C)(C(=O)O)CC3)[C@@H](C)CO2)n2ccnc(N)c12 (stereo partly drawn) [Example 181, 4-{(2R,5S)-2-[8-amino-1-(2-methoxy-4-{[4-(trifluoromethyl)pyridin-2-yl]carbamoyl}phenyl)imidazo [1,5-a]pyrazin-3-yl]-5-methylmorpholin-4-yl}-1-methylcyclohexanecarboxylic acid]
